These results are taken from patent US20050261130A1, “Novel surfactants and formulations” (Monsanto Technology LLC, priority 2000, published 2005).

The nature of series [1]: Compatibility of surfactant with potassium glyphosate concentrate (no phase separation, 50° C., 1 week). It counts as physicochemical. The following applies: 50° C. oven 1 week; for Compatible w/37% a.e. K + glyphosate at 12 wt % loading: 37 wt. % a.e. potassium glyphosate/12 wt. % surfactant; for Compatible w/40% a.e. K + glyphosate at 10% wt loading: 40 wt. % a.e. potassium glyphosate/10 wt. % surfactant; for Compatible w/45% a.e. K + glyphosate at 15% wt loading: 45 wt. % a.e. potassium glyphosate/15 wt. % surfactant. The method, then:
For the 31 wt. % a.e. potassium glyphosate/10 wt. % surfactant compositions: 1.550 g of 40 wt. % a.e. aqueous glyphosate potassium salt solution was weighed into a vial. To the same vial, 0.200 g of surfactant was added. Enough deionized water was then added to the contents to bring the total weight to 2.000g. The mixture was stirred for 2 hours at room temperature and checked to see if a solution had been formed. If a solution was present, the test vial was allowed to stand at room temperature overnight. If a solution was still present, the test vial was placed in a 50° C. oven for 1 week. If no phase separation had occurred in one week, the surfactant being tested was considered “compatible.” All of the surfactants identified in Table 4 were compatible at the 31% a.e. potassium/10 wt. % surfactant loading.
For the 37 wt. % a.e. potassium glyphosate/12 wt. % surfactant compositions: 41.1 g of 45 wt. % a.e. aqueous glyphosate potassium salt was weighed to a container. To the same container was added 6.0 g of surfactant and 2.9 g deionized water for a total weight of 50.0 g. The remainder of the protocol is the same as that described for the 31 wt. % samples. The surfactants identified in Table 4 that were compatible at the 37% a.e. potassium/12 wt. % surfactant loading are indicated in Table 5 below.
For the 40 wt. % a.e. potassium glyphosate/10 wt. % surfactant compositions: 1.79 g of 45 wt. % a.e. aqueous glyphosate potassium salt was weighed into a vial. To the same vial was added 0.2 g of surfactant. The remainder of the protocol is the same as that described for the 31 wt. % samples. The surfactants identified in Table 4 that were compatible at the 40% a.e. potassium/10 wt. % surfactant loading are indicated in Table 5 below.
For the 45 wt. % a.e. potassium glyphosate/15 wt. % surfactant compositions: 1.100 g of solid mono potassium glyphosate was weighed into a vial. To the same vial was added 0.300 g surfactant. Enough deionized water was added to the vial to bring the final weight to 2.000 g. The remainder of the protocol is the same as that described for the 31 wt. % samples. The surfactants identified in Table 4 that were compatible at the 45% a.e. potassium/[…] are indicated in Table 5 below.

Series [2] in a line: Brookfield viscosity (Model DV-11, Small Sample Adapter). It counts as physicochemical. The following applies: 10° C. The method, then: (§1) Viscosities were measured using a Haake Model VT500(Haake, Inc., Karlsruhe Germany) equipped with the appropriate MV series cup and bob sensor system at a shear rate of 45 sec^−1. The temperature was varied with the attached water bath. For a few samples for which insufficient sample was available the viscosities were measured with a Brookfield Model DV-11 equipped with a Small Sample Adapter (Brookfield Laboratories, Inc., Stoughton, Mass.).

A short description of series [3]: Compatibility of surfactant with diammonium glyphosate concentrate (no phase separation, 50° C., 1 week). The following applies: 50° C. oven 1 week; for Compatible w/31% a.e. diammonium glyphosate at 10 wt % loading: 31 wt. % a.e. diammonium glyphosate/10 wt. % surfactant; for Compatible w/37% a.e. diammonium glyphosate at 12 wt % loading: 37 wt. % a.e. diammonium glyphosate/12 wt. % surfactant. It counts as physicochemical. The method, then:
For the 31 wt. % a.e. NH4^+glyphosate/10 wt. % surfactant compositions: • 1.48 g of 41.9 wt % a.e. aqueous glyphosate diammonium (1.7 eq) salt was weighed into a vial. To the same vial was added 0.2 g of surfactant and 0.32 g deionized water. The remainder of the protocol is the same as that described for the 31 wt % potassium glyphosate samples. The surfactants identified in Table 4 that were compatible at the 31% a.e. ammonium/10 wt. % surfactant loading are indicated in Table 5 below.
For the 37 wt. % a.e. NH4^+glyphosate/12 wt. % surfactant compositions: • 1.76 g of 41.9 wt % a.e. aqueous glyphosate diammonium (1.7 eq) salt was weighed into a vial. To the same vial was added […]. The remainder of the protocol is the same as that described for the 31 wt % potassium glyphosate samples. The surfactants identified in Table 4 that were compatible at the 37% a.e. ammonium/12 wt. % surfactant loading are indicated in Table 5 below.

The nature of series [4]: Cloud point of aqueous concentrate compositions. It counts as physicochemical. The following applies: 12 wt % surfactant. The method, then: For aqueous solution concentrates, high temperature storage stability is often indicated by a cloud point of about 50° C. or more. Cloud point of a composition is normally determined by heating the composition until the solution becomes cloudy, and then allowing the composition to cool, with agitation, while its temperature is continuously monitored. A temperature reading taken when the solution clears is a measure of cloud point. A cloud point of 50° C. or more is normally considered acceptable for most commercial purposes for a glyphosate SL formulation. Ideally the cloud point should be 60° C. or more, and the composition should withstand temperatures as low as about −10° C. for up to about 7 days without crystal growth, even in the presence of seed crystals of the glyphosate salt.
Cloud points were measured by heating a small amount of the material in a test tube until the solution became hazy or cloudy then removing the test tube from the heat and observing the temperature at which the solution became clear on cooling. The temperature at which the solution became clear is noted as the cloud point.
Cloud point was determined for certain liquid compositions of Examples 66-69 as follows. A sample of the composition in a test tube was heated in a water bath until it became cloudy. The test tube was then removed from the water bath and the sample stirred with a thermometer until it became clear. The temperature at which the sample became clear was recorded as the cloud point of the composition.

Series [5] is described as follows: Haake viscosity (Haake VT500, shear rate 45 sec^−1). It counts as physicochemical. The following applies: 12 wt % surfactant. How it is done: as §1
For series [6] the following is noted: cited from earlier work.
The nature of series [7]: Specific gravity (Mettler DA-300 Density/Specific Gravity Meter). The format is physicochemical. The following applies: 20/15.6° C.; 30% a.e. by weight glyphosate monobasic salt solutions. How it is done: Specific gravities are measured using a Mettler DA-300 Density/Specific Gravity Meter.
Series [8] is described as follows: Density of formulations (Mettler DA-300 Density Meter). It counts as physicochemical. The following applies: 20° C.; 50.0% glyphosate acid (61% potassium glyphosate) solution of Example A. How it is done:
The density was then determined using a Mettler DA-300 Density Meter and the concentrations in grams per liter was calculated.

Take `CCCCCCCCNCC(O)C(O)C(O)C(O)CO` (stereo not drawn) [AA]: in series [1], the “Compatible w/37% a.e. K + glyphosate at 12 wt % loading” value (from here on “Compatible w/37% a.e. K + glyphosate”) is “Yes”, the “Compatible w/40% a.e. K + glyphosate at 10% wt loading” value is listed as “Yes” and the “Compatible w/45% a.e. K + glyphosate at 15% wt loading” value (shortened to “Compatible w/45% a.e. K + glyphosate”) is on record as “Yes”. The “Viscosity Data 37% a.e. K + glyphosate at 12 wt % loading, Brookfield Viscosity” value in series [2] (Spindle 31, 12 rpm) is given as 12 rpm, 52.6 cPs. For the same molecule, the “Viscosity Data 37% a.e. K + glyphosate at 12 wt % loading, Brookfield Viscosity” value in series [2] (Spindle 31, 60 rpm) was 60 rpm, 60.1 cPs. In addition, in series [3], the “Compatible w/31% a.e. diammonium glyphosate at 10 wt % loading” value is “Yes” and the “Compatible w/37% a.e. diammonium glyphosate at 12 wt % loading” value is on record as “Yes”. In addition, the “Cloud Point Data 37% a.e. K + glyphosate at 12 wt % loading” value (from here on “Cloud Point Data 37% a.e. K + glyphosate”) in series [4] is over 90 °C.

For `NCCOCCOCCN` [DD], the “Compatible w/37% a.e. K + glyphosate” value in series [1] was “Yes”. Besides, in series [4], the “Cloud Point Data 37% a.e. K + glyphosate” value was over 90 °C. The “Viscosity Data 37% a.e. K + glyphosate at 12 wt % loading, Haake Vis.” value is recorded as 231.17 cPs in series [5] (0° C.); 150.26 cPs in series [5] (5° C.); 138.80 cPs in series [5] (10° C.); 82.51 cPs in series [5] (15° C.); 49.37 cPs in series [5] (25° C.); 397.16 cPs in series [5] (−5° C.).

`CCCCN(CCCC)CCCN` [F]: in series [1], the “Compatible w/37% a.e. K + glyphosate” value is listed as “Yes”. Also, the “Compatible w/40% a.e. K + glyphosate at 10% wt loading” value in series [1] is given as “Yes”. Also, the “Compatible w/45% a.e. K + glyphosate” value in series [1] is recorded as “Yes”. For the same molecule, the “Cloud Point Data 37% a.e. K + glyphosate” value in series [4] is over 90 °C. For the same molecule, the “Viscosity Data 37% a.e. K + glyphosate at 12 wt % loading, Haake Vis.” value is listed as 273.01 cPs in series [5] (0° C.); 173.57 cPs in series [5] (5° C.); 142.38 cPs in series [5] (10° C.); 110.89 cPs in series [5] (15° C.); 57.29 cPs in series [5] (25° C.); 400.48 cPs in series [5] (−5° C.).

Regarding `CC(C)CC(C)CC(C)COCCCNCCCN` (stereo not drawn) [R], the “Compatible w/37% a.e. K + glyphosate” value in series [1] is “Yes”. The “Cloud Point Data 37% a.e. K + glyphosate” value in series [4] was over 90 °C. Further, the “Viscosity Data 37% a.e. K + glyphosate at 12 wt % loading, Haake Vis.” value in series [5] (0° C.) is 2517 cPs; in series [5] (5° C.), 2269 cPs; in series [5] (10° C.), 1963 cPs; in series [5] (15° C.) it was 1420 cPs; in series [5] (25° C.), 1077 cPs; in series [5] (−5° C.), −5° C., too thick.

Regarding `CCCCCCCCCCCCCCCCCCN(C)CC(O)C(O)C(O)C(O)CO` (stereo not drawn) [SS], the “Compatible w/37% a.e. K + glyphosate” value in series [1] is recorded as “Yes”. Also, the “Viscosity Data 37% a.e. K + glyphosate at 12 wt % loading, Brookfield Vis.” value in series [2] (Spindle 31, 12 rpm) was 12 rpm, 86.5 cp. Moreover, the “Viscosity Data 37% a.e. K + glyphosate at 12 wt % loading, Brookfield Vis.” value in series [2] (Spindle 31, 60 rpm) is reported as 60 rpm, 88.2 cp. Also, in series [3], the “Compatible w/31% a.e. diammonium glyphosate at 10 wt % loading” value is on record as “No” and the “Compatible w/37% a.e. diammonium glyphosate at 12 wt % loading” value is reported as “No”.

Consider `CCCCCCN(CCCN(CCCCCC)CC(O)C(O)C(O)C(O)CO)CC(O)C(O)C(O)C(O)CO` (stereo not drawn) [Surfactant AAA, 1,6 hexylaminoglucitol propane], for which, in series [1], the “Compatible w/37% a.e. K + glyphosate” value is reported as “Yes” and the “Compatible w/45% a.e. K + glyphosate” value is “Yes”. Moreover, the “Viscosity Data 37% a.e. K + glyphosate at 12 wt % loading, Brookfield Vis.” value in series [2] (Spindle 31, 12 rpm) was 12 rpm, 76.5 cp. Besides, in series [2] (Spindle 31, 60 rpm), the “Viscosity Data 37% a.e. K + glyphosate at 12 wt % loading, Brookfield Vis.” value is 60 rpm, 78.2 cp. In series [3], the “Compatible w/31% a.e. diammonium glyphosate at 10 wt % loading” value was “Yes” and the “Compatible w/37% a.e. diammonium glyphosate at 12 wt % loading” value is “Yes”.

In the case of `CCCCCCCCN(C)CC(O)C(O)C(O)C(O)CO` (stereo not drawn) [UU], the “Compatible w/37% a.e. K + glyphosate” value in series [1] is on record as “Yes”. The “Viscosity Data 37% a.e. K + glyphosate at 12 wt % loading, Brookfield Vis.” value is listed as 12 rpm, 114 cp in series [2] (Spindle 31, 12 rpm) and 60 rpm, 113 cp in series [2] (Spindle 31, 60 rpm). Besides, the “Compatible w/31% a.e. diammonium glyphosate at 10 wt % loading” value in series [3] was “No”. In addition, in series [3], the “Compatible w/37% a.e. diammonium glyphosate at 12 wt % loading” value is listed as “No”.

Take `O=C(O)CNCP(=O)(O)O` [glyphosate, N-phosphonomethylglycine]: the Solubility in water in series [6] (25° C.) was 1.16 % by weight.

As to `CC(C)N.O=C(O)CNCP(=O)(O)O` [isopropylammonium (IPA)], in series [7], the “Specific Gravity” value is 1.1554.

Consider `CN` [methylammonium], for which, in series [7], the “Specific Gravity” value came to 1.1667.

For the molecule `NCCO.O=C(O)CNCP(=O)(O)O` [monoethanolammonium (MEA)], the “Specific Gravity” value in series [7] is given as 1.2357.

In the case of `O=C(O)CNCP(=O)([O-])O.[K+]` [potassium, glyphosate potassium salt], in series [6] (20° C., as salt), the “Solubility in pure water” value is on record as “about 54 % by weight”. The “Solubility in pure water, glyphosate acid equivalent” value in series [6] (20° C.) is reported as “about 44 % glyphosate acid equivalent (a.e.) by weight”. In addition, the “Specific Gravity” value in series [7] came to 1.2539. Moreover, the “Density of the resulting solution” value in series [8] is on record as “approximately 1.4661 grams/milliliter”.

For `C[S+](C)C.O=C(O)CNCP(=O)([O-])O` [trimethylsulfonium (TMS)], the “Specific Gravity” value in series [7] amounted to 1.1904.

In the case of ammonium, the “Specific Gravity” value in series [7] was determined as 1.1814.
